Patent US11214547B2, “Crystalline Eltrombopag monoethanolamine salt form D” (F.I.S.—FABBRICA ITALIANA SINTETICI S.P.A., priority 2018, dated 2022)

Assays:
[1] = Preliminary stability in water at RT (slurry, XRPD); format: physicochemical; conditions: XRPD at 1, 3, 6 and 24 h
Method: A preliminary test stability study in water at RT of 4 ETP monoethanolamine salt Forms was performed in order to observed possible crystalline transitions. A sample of each crystalline form was slurried in water at RT and periodically analysed by XRPD (1, 3, 6 and 24 h) in order to detect possible crystalline transformation.

[2] = Relative thermodynamic solubility in water at RT by HPLC; format: physicochemical; conditions: for Intensity test average: average of solubility tests #1 and #2, water; for Intensity test average / Solubility test #1 (area counts) / Solubility test #2 (area counts): RT; for Solubility test #1 (area counts) / Solubility test #2 (area counts): water, 24 h stirring, HPLC ETP peak area of saturated solution
Method: This suspension was stirred 24 h at RT in order to reach the equilibrium. Then, a sample was filtered and the resulting filtrate was analysed by HPLC by duplicate. The average peak area of ETP gave a relative value of the thermodynamic solubility of each form that can be compared with each other. The solids recovered after filtration were also analysed by XRPD to check that no crystalline phase transformation occurred during the slurring.
The following HPLC conditions were used to determine the relative solubility (due to their short analysis time and good response): • Column: C18 Zorbax Eclipse (XDB), 150×4.6 mm, 5 μm • Sample concentration: Saturated water solution of the ETP monoethanolamine salt • Mobile phase: ACN:MeOH:H2O (55:35:10) at pH=6.0+/−0.2 • Temperature: 27° C. • Flow rate: 1 mL/min • UV detector wavelength: 230 nm • Injection: 5 μL • Run time: 10 min
HPLC ETP peak area in each of the different forms analysed was measured in order to establish their relative solubility. The HPLC analyses were performed by duplicate for each ETP monoethanolamine salt.

[3] = Crystalline stability of Form D under accelerated ICH guideline conditions (XRPD); format: physicochemical
Text: […] […] This sample was periodically analysed by XRPD in order to observe possible crystalline transformation or amorphization. Moreover, a sample of ETP monoethanolamine salt Form D stored on a XRPD silicon holder was exposed in a climatic chamber. It is worth noting that these stability conditions are harsher than standard stability conditions due to the high surface of exposition of the solid stored on the XRPD silicon holder. The samples were periodically analysed by XRPD to observe possible crystalline transformation.

[4] = Hygroscopicity study by DVS (Dynamic Vapour Sorption); format: physicochemical; conditions: 25° C.
Method: Hygroscopicity study was determined by DVS (Dynamic Vapour Sorption) with a Q5000 TA instrument. This is a gravimetric technique that measures how much water is absorbed or desorbed by a sample at different relative humidity (RH). At each RH, the sample mass must be allowed to reach gravimetric equilibrium (or surpassed time limit) before progressing to the next humidity level. Sorption and desorption isotherms were performed at 25° C. over a range of 0-95% RH. The samples gently milled were not previously dried but they were exposed to 0% RH until a stable weight was reached before starting the DVS cycle. This equilibration step allows possible adsorbed humidity to be eliminated.

[5] = cited from earlier work

Row | crystalline stability slurried in water [1] | Intensity test average [2] | Solubility test #1 (area counts) [2] [area counts] | Solubility test #2 (area counts) [2] [area counts] | time the crystalline form remains stable ([3]; climate chamber-75±5% RH, on XRPD sample holder) | hygroscopicity ([4]; 0-95% RH) | relative solubility in water ([2]; water at RT, ranking among the 4 forms) | humidity adsorbed (water uptake) ([4]; at 95% RH) [%] | Compound | crystalline transformation by XRPD ([3]; 14 weeks study period) | thermally stable up to ([5]; at higher temperature endothermic reaction associated with degradation) | solubility in water [5]
1 | remained stable 24 h | 2911 | 2722 | 3100 |  |  |  |  | CC1=NN(c2ccc(C)c(C)c2)C(=O)/C1=N\Nc1cccc(-c2cccc(C(=O)O)c2)c1O [Form D1] |  |  | 
2 | remained stable 24 h | 8066 | 7930 | 8201 | at least 14 weeks | not hygroscopic up to 85% RH | most soluble form in water at RT |  | CC1=NN(c2ccc(C)c(C)c2)C(=O)/C1=N\Nc1cccc(-c2cccc(C(=O)O)c2)c1O [Form D] | polymorphic transition, hydrate formation or amorphization was not observed |  | 
3 | remained stable 24 h | 2867 | 3068 | 2665 |  |  |  | 0.6 | CC1=NN(c2ccc(C)c(C)c2)C(=O)/C1=N\Nc1cccc(-c2cccc(C(=O)O)c2)c1O.NCCO [Form H2] |  |  | 
4 |  |  |  |  |  |  |  |  | CC1=NN(c2ccc(C)c(C)c2)C(=O)/C1=N\Nc1cccc(-c2cccc(C(=O)O)c2)c1O [Eltrombopag olamine] |  | about 125 °C | sparingly soluble in water
